According to patent US9421203B2, “Sensitization of cancer cells to DNA damage by inhibiting kinases essential for DNA damage checkpoint control” (Institute for Cancer Research, priority 2012, dated 2016):
Entries after “also recorded” stand apart in the source; their conditions may differ.

Experiments:
Mia-PaCa-II cells = test: Mia-PaCa-II cell viability after gemcitabine followed by authentic bosutinib; type: cell-based; details: authentic bosutinib at 2.5 μM and 5 μM (FIG. 7D)
PANC1 cells [1] = test: Time-lapse video-microscopy of checkpoint override (premature mitosis) in PANC1 cells; type: cell-based; details: gemcitabine 24 h, then inhibitor 1 μM (UCN-01 100 nM), time-lapse 24 hours
Protocol: PANC1 cells were treated with gemcitabine for 24 hours before the addition of kinase inhibitors (1 μM), and filming commenced thereafter.
Time-lapse video microscopy was used to document the fates of cells treated with gemcitabine with and without the Chk1 inhibitor, UCN-01 (FIG. 3).

PANC1 cells [2] = type: cell-based; details: for sensitization of PANC1 cells to gemcitabine: increasing gemcitabine 24 h, then UCN-01 100 nM, bosutinib or sunitinib 1 μM for 48 h (FIG. 1B)
PANC1 cells [3] = test: Clonogenic survival assay in PANC1 cells; type: cell-based; details: gemcitabine 10 nM 24 h
Protocol: Surviving colonies were determined 10 days later. […] After this time all drugs were removed and cells were plated to determine their efficiency of colony formation after 10 days.

PANC1 cells [4] = test: cells; type: cell-based; details: for viability of gemcitabine treated PANC1 cells: gemcitabine 10 nM 24 h, then inhibitor 1 μM for 48 h (FIG. 1A)
Protocol: FIGS. 7A-7D show the viability of PANC1 cells treated with increasing concentrations of (FIG. 7A) doxorubicin or (FIG. 7B) cisplatin (24 h) before the addition of UCN-01 (100 nM) or Bos-I (1000 nM) for a further 48 hours.
Identification of clinically relevant kinase inhibitors that sensitize cells to gemcitabine. In the experiments described in this Example, the general protocol was to treat pancreatic cancer cell line (Panc-1) with a dose of gemcitabine that induces DNA damage and arrests cell cycle progression. A panel of nine different clinically relevant kinase inhibitors (FIG. 1A) were added to gemcitabine treated cells, and were assessed for their ability to enhance killing of pancreatic cancer cells to gemcitabine. PANC1 cells were treated with a sub-lethal (IC20) concentration of gemcitabine (10 nM) for 24 hours (a time and concentration sufficient to induce DNA damage and S phase arrest) and kinase inhibitors (all at 1 μM final) were added for another 48 h before cell viability was measured. UCN-01, a Chk1 inhibitor that is established as a sensitizer of gemcitabine was included as a positive control.

[5] = test system: 300 recombinant human protein kinases; details: of 300 recombinant human kinases; database / Anastassiadis 2011; cited from earlier work
PANC1 cells [6] = test: Immunofluorescence of mitotic figures in gemcitabine-arrested cells; type: cell-based; details: UCN-01 100 nM or Bos-I 1000 nM (FIG. 4)
Description: Shown are representative images of cells from each treatment.
The mitotic figures of cells forced into mitosis by the newly identified sensitizers were examined to determine how they compared to checkpoint override by UCN-01. […] The defects include two lobes of chromatin that lie outside of the spindle, with the detached kinetochores lying within the spindle.
It was observed that overriding the gemcitabine induced S phase checkpoint arrest with Chk1 inhibitors (UCN-01) results in a discrete and reproducible mitotic defect called MUGs (mitotically unreplicated genomes). The defining feature of MUGs is the unreplicated centromeres in the genome are physically detached from the chromosome mass (FIG. 4).

EGF-1 cells = test: Immunofluorescence of checkpoint override in patient-derived pancreatic cancer cell line EGF-1; type: cell-based; details: arrest imposed by either gemcitabine or doxorubicin
Description: Quantification of the percentage of cells that enter mitosis/override the checkpoint after treatment with either gemcitabine or doxorubicin is shown (right panel).
Tumor cells were isolated under an IRB-approved protocol and passaged as xenografts in mice. EGF-1 is a cell line that was derived from F1 tumors and used for in vitro studies.

[7] = test system: Tyr15 phosphorylation of Cdc2; test: Tyr15 phosphorylation of Cdc2 in gemcitabine treated PANC1 cells; type: cell-based; details: PANC1 cells treated with gemcitabine
Description: Inhibition of Tyr15 phosphorylation was not observed for dasatnib, which is fully consistent with its in vitro kinase profile, and its inability to override the DNA damage checkpoint.

Wee 1 = Wee 1 (Homo sapiens, UniProt P30291); test: IC50 / kinase assay toward recombinant Wee1 (MBP or Cdc2 substrate); type: biochemical; details: Cdc2 as substrate; data not shown
Wee 1, sequence (P30291 whole entry): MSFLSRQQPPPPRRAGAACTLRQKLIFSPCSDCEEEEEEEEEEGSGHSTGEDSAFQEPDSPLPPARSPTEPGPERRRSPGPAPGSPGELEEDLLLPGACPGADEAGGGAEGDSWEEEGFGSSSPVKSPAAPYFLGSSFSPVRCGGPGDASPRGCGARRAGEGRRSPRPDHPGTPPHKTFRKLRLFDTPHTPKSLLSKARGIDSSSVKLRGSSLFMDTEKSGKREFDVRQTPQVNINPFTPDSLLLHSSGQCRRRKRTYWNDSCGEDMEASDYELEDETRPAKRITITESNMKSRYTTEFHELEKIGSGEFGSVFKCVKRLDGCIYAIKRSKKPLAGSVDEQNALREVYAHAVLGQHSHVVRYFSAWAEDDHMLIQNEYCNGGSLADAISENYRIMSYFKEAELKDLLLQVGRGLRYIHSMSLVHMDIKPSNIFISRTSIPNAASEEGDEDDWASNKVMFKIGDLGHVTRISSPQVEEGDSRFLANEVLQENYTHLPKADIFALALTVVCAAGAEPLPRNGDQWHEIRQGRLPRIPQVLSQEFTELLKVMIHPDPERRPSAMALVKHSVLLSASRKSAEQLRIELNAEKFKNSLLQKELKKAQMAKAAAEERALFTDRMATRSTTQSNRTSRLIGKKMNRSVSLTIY

[8] = test system: Ba/F3 cells expressing the Bcr-Abl mutant (T3151); test: Viability of Ba/F3 cells expressing Bcr-Abl mutant with bendamustine; type: cell-based; details: Bos-I 1000 nM (FIG. 9B)
Protocol: (§1) FIGS. 9A and 9B show the viability of Ba/F3 cells either expressing (FIG. 9A) the Bcr-Abl wild-type (WT) or (FIG. 9B) the Bcr-Abl mutant (T3151) kinases (lower) treated with increasing concentrations of bendamustine alone or with the addition of Bos-1 (1000 nM).
(§2) It is believed that inhibitors of Src and Abl tyrosine kinases may be effective as a single agent in the treatment of CML (Chronic myelogenous leukemia) where it contains a specific chromosome translocation that fuses the Abl kinase to the Bcr gene. Inhibitors of the Bcr/Abl fusion kinase, such as imatinib and bostunib (Formula I), are effective in the treatment of CML, but resistance (at least for imatinib) invariably occurs. Resistance to imatinib occurs most often as a result of mutations at the gatekeeper position (Threonine 315) within the Abl kinase domain. Such mutants no longer respond to inhibitors such as imatinib. […] (FIG. 9A and FIG. 9B). It is believed that the activity of Bosutinib-isomer against wild type and T3151 mutant is likely mediated through its off-target effects against the DNA damage checkpoint kinases, Wee1 and Chk1.

[9] = test system: Ba/F3 cells expressing the Bcr-Abl wild-type (WT); test: Viability of Ba/F3 cells expressing Bcr-Abl wild-type with bendamustine; type: cell-based; details: Bos-I 1000 nM (FIG. 9A)
Protocol: as §1, §2

COc1cc(Nc2c(C#N)cnc3cc(OCCCN4CCN(C)CC4)c(OC)cc23)c(Cl)cc1Cl [Authentic bosutinib, Bosutinib]
sensitization of Mia-PaCa-II cells to gemcitabine (Mia-PaCa-II cells): sensitized to gemcitabine | checkpoint override / premature entry into mitosis (PANC1 cells [1]): able to override the checkpoint and force cells into premature mitosis | minimum effective concentration to sensitize cells to gemcitabine (PANC1 cells [2]; PANC1, titration of sensitizer): 750 nM | sensitization of PANC1 cells to gemcitabine (PANC1 cells [2]): sensitized cells to gemcitabine | sensitization to killing by gemcitabine, clonogenic survival (PANC1 cells [3]; compound 0.5 μM for 3 h, colonies after 10 days (FIG. 2)): not | viability of gemcitabine treated PANC1 cells (PANC1 cells [4]): significantly reduced viability of cells treated with gemcitabine | number of kinases inhibited by more than 50% [5]: 84/300

Cn1c(=O)n(-c2ccc(C(C)(C)C#N)cc2)c2c3cc(-c4cnc5ccccc5c4)ccc3ncc21 [BEZ-235]
viability of gemcitabine treated PANC1 cells (PANC1 cells [4]): significantly reduced viability of cells treated with gemcitabine

COc1cc2c(Nc3cc(Cl)c(OC)c(Cl)c3)c(C#N)cnc2cc1OCCCN1CCN(C)CC1 [Bosutinib isomer, Bosutinib-I]
checkpoint override / premature entry into mitosis (PANC1 cells [1]): increased the number of mitotic cells | mitotic figures of gemcitabine-arrested cells (PANC1 cells [6]): abnormal mitotic figures from gemcitabine-arrested cells that were nearly indistinguishable from UCN-01 treatment | premature entry into mitosis / checkpoint override in EGF-1 cells (EGF-1 cells): able to prematurely enter mitosis after overriding checkpoint arrests | Tyr15 phosphorylation of Cdc2 [7]: dose-dependent inhibition of Tyr15 phosphorylation | sensitization to killing by gemcitabine, clonogenic survival (PANC1 cells [3]; compound 1 μM for 3 h, colonies after 10 days (FIG. 2, FIG. 6)): sensitized cells to killing by gemcitabine | sensitization of PANC1 cells to doxorubicin (PANC1 cells [4]; 1 μM of the isomer (FIG. 7A)): sensitization by the bosutinib isomer was observed | sensitization of PANC1 cells to cisplatin (PANC1 cells [4]; 1 μM of the isomer (FIG. 7B)): sensitization by the bosutinib isomer was observed | sensitization to gemcitabine at 1 uM (PANC1 cells [4]; PANC1, 1 uM, MTS assay and clonogenic assays): sensitized cells to gemcitabine | viability of gemcitabine treated PANC1 cells (PANC1 cells [4]): reduced the viability of gemcitabine treated cells in a dose-dependent manner | Wee1 inhibitory activity against physiologically relevant substrate Cdc2 (Wee 1): recapitulated the studies that used MBP as a substrate | killing of cells in combination with Bendamustine [8]: enhanced killing of cells | killing of cells in combination with Bendamustine [9]: enhanced killing of cells | number of kinases inhibited by more than 50% [5]: 84

CN[C@@H]1C[C@H]2O[C@@](C)([C@@H]1OC)n1c3ccccc3c3c4c(c5c6ccccc6n2c5c31)C(=O)N[C@@H]4O [UCN-01]
checkpoint override / premature entry into mitosis (PANC1 cells [1]): forced cells to prematurely enter mitosis; also recorded: increased the number of cells that entered mitosis | mitotic figures of gemcitabine-arrested cells (PANC1 cells [6]): severely perturbed mitotic figures | sensitization of PANC1 cells to gemcitabine (PANC1 cells [2]): sensitized cells to gemcitabine

Nc1ccn([C@@H]2O[C@H](CO)[C@@H](O)C2(F)F)c(=O)n1 [gemcitabine, Gemcitabine]
CC50 (PANC1 cells [4]; Homo sapiens, PANC-1, read-out: LC50 of gemcitabine alone): > 30 nM
